Assay results published in patent EP0973790B1, “ESTRA-5(10),7-DIENES WITH ESTROGENIC ACTIVITY” (Wyeth, priority 1997, dated 1998).

Legend:
Immature rats = assay: In vivo uterotropic activity; conditions: for Uterine Weight (mg) ± SD: n=6/group
[1] = biological target: human estrogen receptor (hER-α) (Homo sapiens, UniProt P03372); assay: Estrogen receptor binding, whole cell test procedure; conditions: comparison values for known estrogens
human estrogen receptor (hER-α), sequence (P03372 whole entry): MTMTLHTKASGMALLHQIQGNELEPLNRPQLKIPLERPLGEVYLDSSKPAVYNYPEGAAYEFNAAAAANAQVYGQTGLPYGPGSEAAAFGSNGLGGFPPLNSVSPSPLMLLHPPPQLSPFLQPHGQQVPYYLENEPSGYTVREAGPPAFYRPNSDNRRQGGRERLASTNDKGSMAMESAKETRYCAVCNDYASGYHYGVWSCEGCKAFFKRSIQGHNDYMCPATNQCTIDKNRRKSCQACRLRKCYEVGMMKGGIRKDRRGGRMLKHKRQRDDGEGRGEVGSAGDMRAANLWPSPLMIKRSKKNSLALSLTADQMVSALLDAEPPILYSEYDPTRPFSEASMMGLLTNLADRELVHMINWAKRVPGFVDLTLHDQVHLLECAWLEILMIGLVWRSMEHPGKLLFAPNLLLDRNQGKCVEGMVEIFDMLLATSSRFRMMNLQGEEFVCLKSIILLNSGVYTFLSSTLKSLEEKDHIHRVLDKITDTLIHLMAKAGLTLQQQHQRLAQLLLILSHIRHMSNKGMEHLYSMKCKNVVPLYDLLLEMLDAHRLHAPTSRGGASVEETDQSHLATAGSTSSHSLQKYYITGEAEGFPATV

Structure (SMILES)	Uterine Weight (mg) ± SD (Immature rats; 1 µg, three days S.C.) [mg]	Uterine Weight (mg) ± SD (Immature rats; 10 µg, three days S.C.) [mg]	Uterine Weight (mg) ± SD (Immature rats; 100 µg, three days S.C.) [mg]	Uterine Weight (mg) ± SD (Immature rats; 500 µg, three days S.C.) [mg]	further results
CC12CCC3C(=CCC4=C3CCC(O)C4)C1CCC2=O (stereo not drawn) [5B, estra-5(10),7-dien-3β-ol-17-one]	31.7 ± 6.6	43.5 ± 6.9	79.7 ± 5.8	82.6 ± 8.6	Uterine Weight (mg) ± SD (Immature rats; 0.1 µg, three days S.C.): 34.1 ± 6.2 mg
C[C@]12CC[C@@H]3c4ccc(O)cc4CC[C@H]3[C@@H]1CCC2=O [estrone, reference compound]	–	–	–	–	EC50 (Immature rats; estimated in similar test procedures): 0.2 mg/kg
C#C[C@]1(O)CC[C@H]2[C@@H]3CCc4cc(O)ccc4[C@H]3CC[C@@]21C [Ethinyl Estradiol, reference compound]	–	–	–	–	Uterine Weight (mg) ± SD (Immature rats; 0.5 µg, three days): 101.2 ± 2.8 mg
CC12CCC3C(=CCC4=C3CCC(O)C4)C1CCC2=O (stereo not drawn) [5A, estra-5(10),7-dien-3α-ol-17-one]	28.7 ± 2.7	33.3 ± 4.4	66.5 ± 4.7	78.9 ± 13.6	estimated EC50 (Immature rats; uterine stimulation, in words relative to 5B): somewhat lower
C[C@]12CCc3c(ccc4cc(O)ccc34)[C@@H]1CCC2=O [equilenen]	–	–	–	–	Ki [1]: 375 nM
